Measurements reported in ChEMBL document CHEMBL1138905, “Design, synthesis, and biological evaluation of indole derivatives as novel nociceptin/orphanin FQ (N/OFQ) receptor antagonists” (Bioorg Med Chem Lett, 2006).

Key:
Nociceptin receptor [1] = target: T1, Nociceptin receptor (Homo sapiens, UniProt P41146); assay: Displacement of [125I][Tyr14]N/OFQ from ORL1 receptor transfected in CHO cells; type: cell-based
Nociceptin receptor [2] = target: T1, Nociceptin receptor; assay: Displacement of [125I][Tyr14]N/OFQ from ORL1 receptor transfected in CHO cells at 1 uM; type: cell-based
Nociceptin receptor [3] = target: T1, Nociceptin receptor; assay: Antagonist activity against ORL1 receptor by GTPgammaS assay; type: functional

T1 sequence (P41146 whole entry): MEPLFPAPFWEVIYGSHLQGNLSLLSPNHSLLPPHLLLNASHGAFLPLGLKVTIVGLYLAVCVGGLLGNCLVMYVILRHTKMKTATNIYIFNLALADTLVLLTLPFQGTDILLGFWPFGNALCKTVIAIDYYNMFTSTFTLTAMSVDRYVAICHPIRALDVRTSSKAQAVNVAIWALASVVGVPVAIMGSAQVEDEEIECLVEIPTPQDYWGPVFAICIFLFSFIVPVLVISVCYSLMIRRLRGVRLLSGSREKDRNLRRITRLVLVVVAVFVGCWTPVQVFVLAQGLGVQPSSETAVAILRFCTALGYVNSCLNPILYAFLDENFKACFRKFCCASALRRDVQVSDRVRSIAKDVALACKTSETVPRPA

Compound	IC50 (Nociceptin receptor [1]) [nM]	inhibition (Nociceptin receptor [2]) [%]	IC50 (Nociceptin receptor [3]) [nM]
CN(C)CCc1cccc2[nH]c(-c3nc(CCC(C)(C)C)no3)cc12	> 1000	20	–
CC(C)CCc1noc(-c2cc3c(CCN(C)C)cccc3[nH]2)n1	> 1000	29	–
CN1CCCC1c1ccc2[nH]c(-c3nc(CCc4ccc(Cl)cc4)no3)cc2c1C1CCCN1C (centres undefined)	> 1000	31	–
CN1CCN(c2cc[nH]c3nc(-c4nc(CCc5ccc(Cl)cc5)no4)cc2-3)CC1	> 1000	27	–
CN(C)CCc1cccc2[nH]c(-c3nc(CCC4CCOCC4)no3)cc12	> 1000	11	–
CN(C)CCc1cccc2[nH]c(-c3nc(CC4CCCCC4)no3)cc12	440	–	–
COC(C)(C)CCc1noc(-c2cc3c(CCN(C)C)cccc3[nH]2)n1	> 1000	4	–
CN1CCN(c2[nH]ccc3nc(-c4nc(CCc5ccc(Cl)cc5)no4)cc2-3)CC1	40	–	199
CN(C)CCc1cccc2[nH]c(-c3nc(Cc4ccc(Cl)cc4)no3)cc12	450	–	–
Cc1ccc(CCc2noc(-c3cc4c(CCN(C)C)cccc4[nH]3)n2)cc1	230	–	–
CN(C)CCc1cccc2[nH]c(-c3nc(CCCC4CCCCC4)no3)cc12	71	–	294
CN(C)CCc1cccc2[nH]c(C(=O)NCCc3ccc(Cl)cc3)cc12	> 1000	18	–
CN(C)CCc1cccc2[nH]c(-c3nnn(CCc4ccc(Cl)cc4)n3)cc12	> 1000	46	–
CCCCc1noc(-c2cc3c(CCN(C)C)cccc3[nH]2)n1	> 1000	42	–
CN(C)CCc1cccc2[nH]c(-c3nc(CCc4cccnc4)no3)cc12	> 1000	1.7	–
CN(C)CCc1cccc2[nH]c(-c3nc(CCC4CCCC4)no3)cc12	580	–	–
CCCc1noc(-c2cc3c(CCN(C)C)cccc3[nH]2)n1	> 1000	14	–
CN(C)CCc1cccc2[nH]c(-c3nc(CCCN4CCCC4)no3)cc12	> 1000	0	–
CN(C)CCc1cccc2[nH]c(C(=O)NCCCc3ccc(Cl)cc3)cc12	> 1000	41	–
CN1CCC(c2cccc3[nH]c(-c4nc(CCc5ccc(Cl)cc5)no4)cc23)CC1	62	–	899
CN(C)CCc1cccc2[nH]c(-c3nc(CCC4CCCCC4)no3)cc12	140	–	–
CN(C)CCc1cccc2[nH]c(-c3nc(CCC4CC5CCC4C5)no3)cc12 (centres undefined)	440	–	–
CN(C)CCc1cccc2[nH]c(-c3nc(CCC4CC4)no3)cc12	> 1000	29	–
CCN(C)CCc1cccc2[nH]c(-c3nc(CCc4ccc(Cl)cc4)no3)cc12	58	–	223
CN1CCN(c2cccc3[nH]c(-c4nc(CCc5ccc(Cl)cc5)no4)cc23)CC1	120	–	–
CN(C)CCc1cccc2[nH]c(-c3nc(CCc4ccccn4)no3)cc12	> 1000	11	–
Clc1ccc(CCc2noc(-c3cc4c(CCN5CCOCC5)cccc4[nH]3)n2)cc1	> 1000	15	–

Next, values leading:

IC50 (Nociceptin receptor [1]) [nM]	inhibition (Nociceptin receptor [2]) [%]	IC50 (Nociceptin receptor [3]) [nM]	Compound
> 1000	39	–	CN(C)CCc1cccc2[nH]c(-c3nnc(CCc4ccc(Cl)cc4)o3)cc12
600	–	–	CN(C)CCc1cccc2[nH]c(-c3noc(CCc4ccc(Cl)cc4)n3)cc12
560	–	–	COc1ccc(CCc2noc(-c3cc4c(CCN(C)C)cccc4[nH]3)n2)cc1
> 1000	46	–	CN(C)CCc1cccc2[nH]c(-c3nc(CCc4ccccc4)no3)cc12
49	–	421	CN(C)CCc1cccc2[nH]c(-c3nc(CCc4ccc(C(F)(F)F)cc4)no3)cc12
> 1000	37	–	CN(C)CCc1cccc2[nH]c(-c3ncc(CCc4ccc(Cl)cc4)o3)cc12
210	–	–	CN(C)CCCc1cccc2[nH]c(-c3nc(CCc4ccc(Cl)cc4)no3)cc12
> 1000	49	–	CN(C)CCc1cccc2[nH]c(-c3nc(CCCc4ccc(Cl)cc4)no3)cc12
568	–	–	Clc1ccc(CCc2noc(-c3cc4c(CCN5CCCC5)cccc4[nH]3)n2)cc1
> 1000	12	–	CN(C)CCc1cccc2[nH]c(-c3nc(CCc4ccncc4)no3)cc12
> 1000	22	–	CN(C)CCc1ccc2cc(-c3nc(CCc4ccc(Cl)cc4)no3)[nH]c2c1
95	–	632	CN(C)CCc1cccc2[nH]c(-c3nc(CCc4ccc(Cl)cc4)no3)cc12
97	–	450	CN(C)CCOCCc1cccc2[nH]c(-c3nc(CCc4ccc(Cl)cc4)no3)cc12
410	–	–	CN(C)CCc1cccc2[nH]c(-c3nc(COc4ccc(Cl)cc4)no3)cc12
> 1000	18	–	CN(C)CCc1cccc2cc(-c3nc(CCc4ccc(Cl)cc4)no3)[nH]c12
450	–	–	CN(C)CCc1cccc2[nH]c(-c3nc(CCc4ccc(F)cc4)no3)cc12
62	–	233	CN(C)Cc1cccc2[nH]c(-c3nc(CCc4ccc(Cl)cc4)no3)cc12
> 1000	44	–	CN(C)CCc1cccc2[nH]c(-c3nc(CCc4ccc(N(C)C)cc4)no3)cc12
> 1000	3	–	CN(C)CCc1ccc2[nH]c(-c3nc(CCc4ccc(Cl)cc4)no3)cc2c1
